Where two headings read alike, the source gives them in different places.
Tests used:
[1] = molecular target: T1, human adrenergic beta2 receptor (Homo sapiens, UniProt P07550); test: Human adrenergic β2 receptor binding assay (3H-CGP12177, Sf9 membranes)
T1 construct: purchased Perkin Elmer; host or cells: Sf9 cells (membranes)
Protocol: Test 1: Human Adrenergic β1 and β2 Receptor Binding Assays
The study of binding to human adrenergic beta1 and beta2 receptors was performed using commercial membranes prepared from Sf9 cells where they are overexpressed (Perkin Elmer). The membrane suspensions (16 μg/well for beta1 and 5 μg/well for beta2) in assay buffer (75 mM Tris/HCl with 12.5 mM MgCl2 and 2 mM EDTA pH=7.4) were incubated with 0.14 or 0.6 nM of 3H-CGP12177 (Amersham) for beta 1 and beta 2 receptors respectively in a final volume of 250 μl, in GFC Multiscreen 96 well plates (Millipore) previously treated with assay buffer containing 0.3% PEI (Sigma). Non specific binding was measured in the presence of 1 μM propanolol. Incubation was maintained for 60 minutes at room temperature and with gentle shaking. The binding reactions were terminated by filtration and washing with 2.5 volumes of Tris/HCl 50 mM pH=7.4. The affinity of each test compound to the receptor was determined by using ten different concentrations ran in duplicate. IC50s were calculated using Activity Base software from IDBS and the four parameters-log equation.

[2] = molecular target: T2, human muscarinic M3 receptor (Homo sapiens, UniProt P20309); test: Human muscarinic M3 receptor binding assay ([3H]-NMS, CHO-K1 membranes)
T2 construct: purchased Perkin Elmer; host or cells: CHO-K1 cells (membranes)
Protocol: Test 2: Human Muscarinic M1, M2, M3, M4 and M5 Receptors Binding Assays
The study of binding to human muscarinic M1, M2, M3, M4 and M5 receptors was performed using commercial membranes (Perkin Elmer) prepared from CHO-K1 cells. Radioligand binding experiments were conducted in 96 polypropylene well plates in a total volume of 200 μl. All reagents were dissolved in assay binding buffer (PBS with calcium and magnesium, SIGMA), except compounds that were dissolved in DMSO 100%. Non-specific binding (NSB) was measured in the presence of 1 μM atropine. [3H]-NMS was used as the radioligand at a concentration of 1 nM for M2, M3 and M5 and 0.3 nM for M1 and M4. [3H]-NMS and antagonists were incubated with membranes that express human muscarinic receptors M1, M2, M3, M4 and M5 at concentrations of 8.1, 10, 4.9, 4.5 and 4.9 μg/well, respectively. After an incubation period of two hours with gentle shaking, 150 μl of the reaction mix were transferred to 96 GF/C filter plates (Millipore), previously treated with wash buffer (Tris 50 mM; NaCl 100 mM; pH:7.4), containing 0.05% PEI (Sigma) during one hour. Bound and free [3H]-NMS were separated by rapid vacuum filtration in a manifold from Millipore and washed four times with ice cold wash buffer. After drying 30 min, 30 μl of OPTIPHASE Supermix were added to each well and radioactivity quantified using a Microbeta microplate scintillation counter.
The affinity of each test compound to the receptors was determined by using ten different concentrations ran in duplicate. IC50s were calculated using Activity Base software from IDBS and the four parameters-log equation.

[3] = membranes from Sf9 cells overexpressing human beta2, 0.6 nM 3H-CGP12177, read-out: Binding IC50, β2
[4] = membranes from CHO-K1 cells expressing human M3, 1 nM [3H]-NMS, read-out: Binding IC50, M3

T2 sequence (P20309 whole entry): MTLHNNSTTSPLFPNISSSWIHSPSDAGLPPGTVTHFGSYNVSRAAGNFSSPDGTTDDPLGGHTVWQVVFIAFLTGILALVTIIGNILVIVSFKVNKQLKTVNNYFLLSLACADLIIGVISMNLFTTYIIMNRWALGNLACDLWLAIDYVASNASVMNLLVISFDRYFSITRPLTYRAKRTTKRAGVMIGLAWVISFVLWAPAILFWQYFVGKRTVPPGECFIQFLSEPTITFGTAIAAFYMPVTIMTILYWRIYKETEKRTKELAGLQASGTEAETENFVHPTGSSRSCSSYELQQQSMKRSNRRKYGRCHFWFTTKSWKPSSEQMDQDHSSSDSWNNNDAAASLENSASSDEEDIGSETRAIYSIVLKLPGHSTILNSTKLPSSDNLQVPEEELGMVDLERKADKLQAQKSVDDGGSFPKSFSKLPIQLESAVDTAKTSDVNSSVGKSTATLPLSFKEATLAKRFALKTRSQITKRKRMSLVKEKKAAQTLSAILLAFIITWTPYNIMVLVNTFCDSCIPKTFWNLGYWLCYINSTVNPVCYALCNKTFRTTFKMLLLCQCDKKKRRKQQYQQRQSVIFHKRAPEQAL

“trans-4-[{3-[6-(2-{[(2R)-2-hydroxy-2-(8-hydroxy-2-oxo-1,2-dihydroquinolin-5-yl)ethyl]amino}ethyl)-2-oxo-1,3-benzoxazol-3(2H)-yl]propyl}(methyl)amino]cyclohexyl hydroxy(di-2-thienyl)acetate dihydrofluoride [Example 19]” gave an IC50 [1, 3] of 62 nM and an IC50 [2, 4] of 0.8 nM.

`CN(CCN(C)[C@H]1CC[C@H](OC(=O)C(O)(c2cccs2)c2cccs2)CC1)C(=O)COc1ccc(CNC[C@H](O)c2ccc(O)c3[nH]c(=O)ccc23)cc1` [Example 6, trans-4-[{2-[{[4-({[(2R)-2-hydroxy-2-(8-hydroxy-2-oxo-1,2-dihydroquinolin-5-yl)ethyl]amino}methyl)phenoxy]acetyl}(methyl)amino]ethyl}(methyl)amino]cycloh exyl hydroxy(di-2-thienyl)acetate dihydrofluoride] showed an IC50 [1, 3] of 34 nM and an IC50 [2, 4] of 1.4 nM.

Work on `COc1cc(-c2noc(CCCN(C)[C@H]3CC[C@H](OC(=O)C(O)(c4cccs4)c4cccs4)CC3)n2)c(Cl)cc1CNC[C@H](O)c1ccc(O)c2[nH]c(=O)ccc12` [Example 9, trans-4-[(3-{3-[2-chloro-4-({[(2R)-2-hydroxy-2-(8-hydroxy-2-oxo-1,2-dihydroquinolin-5-yl)ethyl]amino}methyl)-5-methoxyphenyl]-1,2,4-oxadiazol-5-yl}propyl)(methyl)amino]cyclohexyl hydroxy(di-2-thienyl)acetate dihydrofluoride] yielded an IC50 [1] of 2.2 nM and an IC50 [2] of 0.2 nM.

Molecule `CN(CCCc1nc(-c2ccc(CNC[C@H](O)c3ccc(O)c4[nH]c(=O)ccc34)cc2)no1)[C@H]1CC[C@H](OC(=O)C(O)(c2cccs2)c2cccs2)CC1` [Example 5, trans-4-[(3-{3-[4-({[(2R)-2-hydroxy-2-(8-hydroxy-2-oxo-1,2-dihydroquinolin-5-yl)ethyl]amino}methyl)phenyl]-1,2,4-oxadiazol-5-yl}propyl)(methyl)amino]cyclohexyl hydroxy(di-2-thienyl)acetate dihydrofluoride] has an IC50 [1, 3] of 2.7 nM and an IC50 [2, 4] of 0.4 nM.

Work on `CN(CCCn1c(=O)oc2cc(CNC[C@H](O)c3ccc(O)c4[nH]c(=O)ccc34)ccc21)[C@H]1CC[C@H](OC(=O)C(O)(c2cccs2)c2cccs2)CC1` [Example 1, trans-4-[{3-[6-({[(2R)-2-hydroxy-2-(8-hydroxy-2-oxo-1,2-dihydroquinolin-5-yl)ethyl]amino}methyl)-2-oxo-1,3-benzoxazol-3(2H)-yl]propyl}(methyl)amino]cyclohexyl hydroxy(di-2-thienyl)acetate, dihydrofluoride] yielded an IC50 [1, 3] of 140 nM and an IC50 [2, 4] of 0.3 nM.

`CN(CCCn1c(=O)sc2cc(CNC[C@H](O)c3ccc(O)c4[nH]c(=O)ccc34)ccc21)[C@H]1CC[C@H](OC(=O)C(O)(c2cccs2)c2cccs2)CC1` [Example 11, trans-4-[{3-[6-({[(2R)-2-hydroxy-2-(8-hydroxy-2-oxo-1,2-dihydroquinolin-5-yl)ethyl]amino}methyl)-2-oxo-1,3-benzothiazol-3(2H)-yl]propyl}(methyl)amino]cyclohexyl hydroxy(di-2-thienyl)acetate dihydrofluoride] was tested, and the IC50 [1, 3] was 4.2 nM and the IC50 [2, 4] was 0.5 nM.

“trans-4-{[2-({2-[4-(2-{[(2R)-2-hydroxy-2-(8-hydroxy-2-oxo-1,2-dihydroquinolin-5-yl)ethyl]amino}propyl)phenoxy]acetyl}amino)ethyl]amino}cyclohexyl hydroxy(di-2-thienyl)acetate dihydrofluoride [Example 20]” gave an IC50 [1, 3] of 3.1 nM and an IC50 [2, 4] of 3.6 nM.

For `CN(CCCn1c(=O)[nH]c2cc(CNC[C@H](O)c3ccc(O)c4[nH]c(=O)ccc34)ccc21)[C@H]1CC[C@H](OC(=O)C(O)(c2cccs2)c2cccs2)CC1` [Example 2, trans-4-[{3-[5-({[(2R)-2-hydroxy-2-(8-hydroxy-2-oxo-1,2-dihydroquinolin-5-yl)ethyl]amino}methyl)-2-oxo-2,3-dihydro-1H-benzimidazol-1-yl]propyl}(methyl)amino]cyclohexyl hydroxy(di-2-thienyl)acetate dihydrofluoride], the IC50 [1] was 120 nM and the IC50 [2] was 0.4 nM.

Molecule `CN(CCNC(=O)COc1ccc(CNC[C@H](O)c2ccc(O)c3[nH]c(=O)ccc23)cc1)[C@H]1CC[C@H](OC(=O)C(O)(c2cccs2)c2cccs2)CC1` (relative stereo) [Example 8, trans-4-[[2-({[4-({[(2R)-2-hydroxy-2-(8-hydroxy-2-oxo-1,2-dihydroquinolin-5-yl)ethyl]amino}methyl)phenoxy]acetyl}amino)ethyl](methyl)amino]cyclohexyl hydroxy(di-2-thienyl)acetate dihydrofluoride] has an IC50 [1, 3] of 18 nM and an IC50 [2, 4] of 2.2 nM.

Work on `COc1cc(OCC(=O)N(C)CCN(C)[C@H]2CC[C@H](OC(=O)C(O)(c3cccs3)c3cccs3)CC2)c(Cl)cc1CNC[C@H](O)c1ccc(O)c2[nH]c(=O)ccc12` [Example 10, trans-4-[{2-[{[2-chloro-4-({[(2R)-2-hydroxy-2-(8-hydroxy-2-oxo-1,2-dihydroquinolin-5-yl)ethyl]amino}methyl)-5-methoxyphenoxy]acetyl}(methyl)amino]ethyl}(methyl)amino]cyclohexyl hydroxy(di-2-thienyl)acetate dihydrofluoride] yielded an IC50 [1] of 5.7 nM and an IC50 [2] of 0.4 nM.

`CN(CCCn1c(=O)oc2cc(CNC[C@H](O)c3ccc(O)c4[nH]c(=O)ccc34)ccc21)[C@H]1CC[C@H](OC(=O)C2(C)c3ccccc3Oc3ccccc32)CC1` [Example 15, trans-4-[{3-[6-({[(2R)-2-hydroxy-2-(8-hydroxy-2-oxo-1,2-dihydroquinolin-5-yl)ethyl]amino}methyl)-2-oxo-1,3-benzoxazol-3(2H)-yl]propyl}(methyl)amino]cyclohexyl 9-methyl-9H-xanthene-9-carboxylate dihydrofluoride] was tested, and the IC50 [1, 3] was 1.5 nM and the IC50 [2, 4] was 1 nM.

With `CN(CCCn1ccc2cc(CNC[C@H](O)c3ccc(O)c4[nH]c(=O)ccc34)ccc21)[C@H]1CC[C@H](OC(=O)C(O)(c2cccs2)c2cccs2)CC1` (relative stereo) [Example 4, trans-4-[{3-[5-({[(2R)-2-hydroxy-2-(8-hydroxy-2-oxo-1,2-dihydroquinolin-5-yl)ethyl]amino}methyl)-1H-indol-1-yl]propyl}(methyl)amino]cyclohexyl hydroxy(di-2-thienyl)acetate dihydrofluoride] the IC50 [1, 3] was 220 nM and the IC50 [2, 4] was 0.6 nM.

For “trans-4-[{3-[5-({[(2R)-2-hydroxy-2-(5-hydroxy-3-oxo-3,4-dihydro-2H-1,4-benzoxazin-8-yl)ethyl]amino}methyl)-1H-1,2,3-benzotriazol-1-yl]propyl}(methyl)amino]cyclohexyl (2S)-cyclopentyl(hydroxy)-2-thienylacetate dihydrofluoride [Example 18]”, the IC50 [2, 4] was 0.4 nM.

`CN(CCCn1nnc2cc(CNC[C@H](O)c3ccc(O)c4[nH]c(=O)ccc34)ccc21)[C@H]1CC[C@H](OC(=O)[C@](O)(c2cccs2)C2CCCC2)CC1` [Example 17, trans-4-[{3-[5-({[(2R)-2-hydroxy-2-(8-hydroxy-2-oxo-1,2-dihydroquinolin-5-yl)ethyl]amino}methyl)-1H-1,2,3-benzotriazol-1-yl]propyl}(methyl)amino]cyclohexyl (2S)-cyclopentyl(hydroxy)-2-thienylacetate dihydrofluoride] showed an IC50 [1, 3] of 13 nM and an IC50 [2, 4] of 0.6 nM.
